Reference: ChEMBL document CHEMBL1128885, “Resolution and comparative anti-HIV evaluation of the enantiomers of calanolides A and B” (Bioorg Med Chem Lett, 1995)

How the values were obtained:
[1] = test system: Human immunodeficiency virus 1; test: Effective concentration required for in vitro inhibitory activity against HIV-1; IA is Inactive; type: functional, organism-based
[2] = test system: Human immunodeficiency virus 1; test: Effective concentration required for in vitro inhibitory activity against HIV-1; type: functional, organism-based

Row | SMILES | EC50 [1] | EC50 [2] [nM]
1 | CCCc1cc(=O)oc2c3c(c4c(c12)OC(C)(C)C=C4)O[C@H](C)[C@@H](C)[C@H]3O [(+)-CALANOLIDE B] | Not Active | 
2 | CCCc1cc(=O)oc2c3c(c4c(c12)OC(C)(C)C=C4)O[C@@H](C)[C@H](C)[C@H]3O [(-)-CALANOLIDE A] | Not Active | 
3 | CCCc1cc(=O)oc2c3c(c4c(c12)OC(C)(C)C=C4)O[C@H](C)[C@@H](C)[C@@H]3O [CALANOLIDE A] |  | 200
4 | CCCc1cc(=O)oc2c3c(c4c(c12)OC(C)(C)C=C4)O[C@@H](C)[C@H](C)[C@@H]3O [COSTATOLIDE] |  | 300
